Test results as given in PubChem BioAssay AID248 (DTP/NCI, 2004).
Values joined by “and” are separate entries in the source; they are usually repeats but may differ in a detail not shown here. Equal entries are not always repeated. Toxic doses and inconclusive results are not listed. Rule as the data show it: active = T/C of 150% or more; inactive = T/C below 125%.

System: L1210 leukemia ip in BDF1 mice, survival T/C
Assay: NCI In Vivo Anticancer Drug Screen. Data for tumor model L1210 Leukemia (intraperitoneal) in B6D2F1 (BDF1) mice
Conditions: endpoint: mean survival time, higher = longer survival
Method in brief: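 Value reflects the ratio of survival in compound-treated mice to survival in vehicle-treated controls, with both groups carrying the same transplanted tumor.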

[1] = dose: 100.0 mg/kg/injection, schedule: Q01DX009 (ip), vehicle: saline with Tween-80
[2] = dose: 200.0 mg/kg/injection, schedule: Q01DX009 (ip), vehicle: saline with Tween-80
[3] = dose: 100.0 mg/kg/injection, schedule: Q01DX009 (ip), vehicle: saline sonified
[4] = dose: 100.0 mg/kg/injection, schedule: Q04DX003 (ip), vehicle: Klucel (hydroxypropylcellulose) (HPC)
[5] = dose: 200.0 mg/kg/injection, schedule: Q01DX009 (ip), vehicle: saline sonified
[6] = dose: 200.0 mg/kg/injection, schedule: Q04DX003 (ip), vehicle: Klucel (hydroxypropylcellulose) (HPC)
[7] = dose: 400.0 mg/kg/injection, schedule: Q01DX009 (ip), vehicle: saline sonified
[8] = dose: 400.0 mg/kg/injection, schedule: Q04DX003 (ip), vehicle: Klucel (hydroxypropylcellulose) (HPC)
[9] = dose: 100.0 mg/kg/injection, schedule: Q01DX009 (ip), vehicle: Klucel (hydroxypropylcellulose) (HPC)
[10] = dose: 200.0 mg/kg/injection, schedule: Q01DX009 (ip), vehicle: Klucel (hydroxypropylcellulose) (HPC)
[11] = dose: 400.0 mg/kg/injection, schedule: Q01DX009 (ip), vehicle: Klucel (hydroxypropylcellulose) (HPC)
[12] = dose: 100.0 mg/kg/injection, schedule: Q01DX001 (ip), vehicle: Klucel (hydroxypropylcellulose) (HPC)
[13] = dose: 200.0 mg/kg/injection, schedule: Q01DX001 (ip), vehicle: Klucel (hydroxypropylcellulose) (HPC)
[14] = dose: 400.0 mg/kg/injection, schedule: Q01DX001 (ip), vehicle: Klucel (hydroxypropylcellulose) (HPC)
[15] = dose: 100.0 mg/kg/injection, schedule: Q04DX003 (ip), vehicle: saline with Tween-80
[16] = dose: 200.0 mg/kg/injection, schedule: Q04DX003 (ip), vehicle: saline with Tween-80
[17] = dose: 400.0 mg/kg/injection, schedule: Q01DX009 (ip), vehicle: saline with Tween-80
[18] = dose: 400.0 mg/kg/injection, schedule: Q04DX003 (ip), vehicle: saline with Tween-80

Measured: T/C

O=Cc1cscc1-c1cscc1C=O
inactive: dose: 50.0 mg/kg/injection, schedule: Q01DX009 (ip), vehicle: saline with Tween-80 91 % of control | [1] 95 % of control | [2] 98 % of control

O=Cc1ccc(C=O)c(Cl)c1
inactive: [3] 100 % of control | [4] 100 % of control | [5] 87 % of control | [6] 95 % of control | [7] 94 % of control | [8] 103 % of control

CC(=O)c1c(O)c(C)c(O)c2c1OC1=CC(=O)C(C(C)=O)C(=O)C12C (stereo not drawn)
inactive: dose: 5.0 mg/kg/injection, schedule: Q01DX009 (ip), vehicle: gum acacia 103 % of control | dose: 10.0 mg/kg/injection, schedule: Q01DX009 (ip), vehicle: gum acacia 101 % of control | dose: 20.0 mg/kg/injection, schedule: Q01DX009 (ip), vehicle: gum acacia 103 % of control | dose: 40.0 mg/kg/injection, schedule: Q01DX009 (ip), vehicle: gum acacia 94 % of control | dose: 80.0 mg/kg/injection, schedule: Q01DX009 (ip), vehicle: gum acacia 86 % of control

O=C1c2ccccc2C(=O)N1O
inactive: dose: 50.0 mg/kg/injection, schedule: Q01DX001 (ip), vehicle: carboxymethylcellulose (CMC) 95 % of control | dose: 100.0 mg/kg/injection, schedule: Q01DX001 (ip), vehicle: carboxymethylcellulose (CMC) 90 % of control | dose: 200.0 mg/kg/injection, schedule: Q01DX001 (ip), vehicle: carboxymethylcellulose (CMC) 95 % of control

S=c1[nH]nc(Nc2ccccc2Cl)s1
inactive: [9] 97 % of control | [10] 98 % of control | [11] 109 % of control

Cc1ccc(S(=O)(=O)OCC2OC(C)(C)OC3C(COS(=O)(=O)c4ccc(C)cc4)OC(C)(C)OC23)cc1 (stereo not drawn)
inactive: dose: 100.0 mg/kg/injection, schedule: Q01DX001 (ip), vehicle: saline 99 % of control | dose: 200.0 mg/kg/injection, schedule: Q01DX001 (ip), vehicle: saline 89 % of control | dose: 400.0 mg/kg/injection, schedule: Q01DX001 (ip), vehicle: saline 99 % of control

COc1cc2c(cc1OC)C1CC3(CC4c5cc(OC)c(OC)cc5CCN4CC3CO)C(CO)CN1CC2 (stereo not drawn)
inactive: dose: 4.0 mg/kg/injection, schedule: Q04DX003 (ip), vehicle: water 101 % of control | dose: 8.0 mg/kg/injection, schedule: Q04DX003 (ip), vehicle: water 101 % of control | dose: 16.0 mg/kg/injection, schedule: Q04DX003 (ip), vehicle: water 110 % of control | dose: 32.0 mg/kg/injection, schedule: Q04DX003 (ip), vehicle: water 103 % of control | dose: 64.0 mg/kg/injection, schedule: Q04DX003 (ip), vehicle: water 101 % of control

COc1ccc(NC(C)=O)cc1
inactive: [12] 107 % of control | [13] 100 % of control | [14] 103 % of control

COC(=O)CN(C(=O)c1ccc(OC(C)=O)cc1)c1ccccc1
inactive: [4] 100 % of control | [6] 94 % of control | [8] 96 % of control

CCCCCCCC/C=C\CCCCCCCC(=O)OCCCCC
inactive: [12] 93 % of control | [3] 102 % of control | [1] 108 % of control | [15] 93 % of control | [13] 92 % of control | [5] 100 % of control | [2] 98 % of control | [16] 91 % of control | [14] 103 % of control | [7] 93 % of control | [17] 95 % of control | [18] 95 % of control

COc1ccc(C(=O)CCCCl)c(OC)c1
inactive: [1] 95 % of control | [15] 89 % of control | [2] 93 % of control | [16] 96 % of control | [17] 93 % of control | [18] 91 % of control

CCCCCO/N=C\c1c2c(O)c3c(O)c(C)c4c(c3c1O)C(=O)C(C)(O/C=C\C(OC)C(C)C(OC(C)=O)C(C)C(O)C(C)C(O)C(C)/C=C\C=C(\C)C(=O)N2)O4 (stereo not drawn)
inactive: dose: 50.0 mg/kg/injection, schedule: Q04DX003 (ip), vehicle: water 100 % of control | dose: 100.0 mg/kg/injection, schedule: Q04DX003 (ip), vehicle: water 94 % of control | dose: 200.0 mg/kg/injection, schedule: Q04DX003 (ip), vehicle: water 100 % of control | dose: 400.0 mg/kg/injection, schedule: Q04DX003 (ip), vehicle: water 102 % of control

Cc1ccccc1[P+](Cc1ccccc1)(c1ccccc1)c1ccccc1C
inactive: dose: 15.0 mg/kg/injection, schedule: Q01DX001 (ip), vehicle: saline 104 % of control

O=C1OC(c2cccc([N+](=O)[O-])c2)=N/C1=C\c1cccc2ccccc12
inactive: [9] 94 % of control | dose: 100.0 mg/kg/injection, schedule: Q04DX002 (ip), vehicle: saline 96 % of control | [10] 105 % of control | dose: 200.0 mg/kg/injection, schedule: Q04DX002 (ip), vehicle: saline 101 % of control | [11] 97 % of control | dose: 400.0 mg/kg/injection, schedule: Q04DX002 (ip), vehicle: saline 94 % of control

C=CCc1cc(CN(C)CCO)c(O)c(OC)c1
inactive: dose: 25.0 mg/kg/injection, schedule: Q04DX003 (ip), vehicle: saline 95 % of control | dose: 50.0 mg/kg/injection, schedule: Q04DX003 (ip), vehicle: saline 95 % of control | dose: 100.0 mg/kg/injection, schedule: Q04DX003 (ip), vehicle: saline 91 % of control

CCCCOC(=O)c1[nH]cnc1/N=N/N(C)CCCC
inactive: dose: 100.0 mg/kg/injection, schedule: Q01DX001 (ip), vehicle: other 112 % of control | dose: 200.0 mg/kg/injection, schedule: Q01DX001 (ip), vehicle: other 120 % of control

CCOC(=O)c1ccnc2ccc(OC)cc12
inactive: dose: 100.0 mg/kg/injection, schedule: Q04DX002 (ip), vehicle: saline with Tween-80 91 % of control | dose: 200.0 mg/kg/injection, schedule: Q04DX002 (ip), vehicle: saline with Tween-80 100 % of control | dose: 400.0 mg/kg/injection, schedule: Q04DX002 (ip), vehicle: saline with Tween-80 104 % of control

CCOCc1nc(NC(C)=O)nc(NC(C)=O)c1-c1ccc(Cl)cc1
inactive: dose: 75.0 mg/kg/injection, schedule: Q01DX001 (ip), vehicle: saline with Tween-80 100 % of control | dose: 150.0 mg/kg/injection, schedule: Q01DX001 (ip), vehicle: saline with Tween-80 96 % of control

Cc1cc(Nc2ccc(C)c(Cl)c2)nc(N)n1
inactive: dose: 100.0 mg/kg/injection, schedule: Q01DX Z (ip), vehicle: methylcellulose (MC) 89 % of control

CCC(O)C1CCCCN1 (stereo not drawn)
inactive: [15] 91 % of control | [16] 104 % of control

CCOC(=O)C(C)CC(C)(C(=O)OCC)C(=O)OCC (stereo not drawn)
inactive: dose: 25.0 mg/kg/injection, schedule: Q04DX003 (ip), vehicle: Klucel (hydroxypropylcellulose) (HPC) 98 % of control | dose: 50.0 mg/kg/injection, schedule: Q01DX009 (ip), vehicle: Klucel (hydroxypropylcellulose) (HPC) 93 % of control | dose: 50.0 mg/kg/injection, schedule: Q04DX003 (ip), vehicle: Klucel (hydroxypropylcellulose) (HPC) 103 % of control | [9] 104 % of control | [4] 98 % of control and 103 % of control | [10] 100 % of control

C/C(CC(O)(C(F)(F)F)C(F)(F)F)=N\N1CCCCCC1
inactive: [4] 97 % of control | [6] 103 % of control | [8] 94 % of control

CC(=O)NC1CCCCC1CC1CCCCC1 (stereo not drawn)
inactive: dose: 75.0 mg/kg/injection, schedule: Q01DX009 (ip), vehicle: Klucel (hydroxypropylcellulose) (HPC) 103 % of control | [4] 102 % of control | dose: 150.0 mg/kg/injection, schedule: Q01DX009 (ip), vehicle: Klucel (hydroxypropylcellulose) (HPC) 93 % of control | [6] 98 % of control | dose: 300.0 mg/kg/injection, schedule: Q01DX009 (ip), vehicle: Klucel (hydroxypropylcellulose) (HPC) 96 % of control | [8] 98 % of control

Cc1cc2[nH]c(=O)[nH]c2cc1C
inactive: [15] 98 % of control | [16] 88 % of control
